In publication PMC9739180, “Discovery of a Flavonoid FM04 as a Potent Inhibitor to Reverse P-Glycoprotein-Mediated Drug Resistance in Xenografts and Improve Oral Bioavailability of Paclitaxel” (International Journal of Molecular Sciences, 2022):
Where two headings read alike, the source gives them in different places.

Key:
CYP2C8 = target: T1, CYP2C8 (Homo sapiens, UniProt P10632); experiment: PTX metabolism in human liver microsomes: 6α-OHP formation; format: in vitro ADME; settings: HLM
T1 construct: tissue Research Institute for Liver Diseases (Shanghai); host or cells: 50-donor pooled human liver microsomes
T1 sequence (P10632 1-490): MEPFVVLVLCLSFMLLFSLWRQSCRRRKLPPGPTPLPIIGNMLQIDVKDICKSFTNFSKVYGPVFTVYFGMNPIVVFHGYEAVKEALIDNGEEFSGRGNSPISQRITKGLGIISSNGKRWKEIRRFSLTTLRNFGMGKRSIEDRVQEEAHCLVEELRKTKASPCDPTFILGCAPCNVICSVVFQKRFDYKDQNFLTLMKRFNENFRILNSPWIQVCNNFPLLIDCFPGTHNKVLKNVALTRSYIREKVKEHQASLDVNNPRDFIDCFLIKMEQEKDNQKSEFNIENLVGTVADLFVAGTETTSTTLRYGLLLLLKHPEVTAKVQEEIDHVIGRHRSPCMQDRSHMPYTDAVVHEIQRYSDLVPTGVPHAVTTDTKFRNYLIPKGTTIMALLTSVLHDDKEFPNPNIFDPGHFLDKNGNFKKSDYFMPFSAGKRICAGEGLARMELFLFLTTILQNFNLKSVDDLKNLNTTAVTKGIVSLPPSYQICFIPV
Protocol: (§1) Figure 7 Mechanistic study of FM04 to increase the oral PTX absorption. (A) transepithelial permeability of PTX in Caco-2 transwell assay. When confluent monolayer of Caco2 cells was formed on the transwell, the permeability of PTX (10 μM) was studied with or without FM04 (10 μM). For apical to basolateral transport (A to B), compound was added at the apical side (donor) and samples of the medium collected at the basal side (receiver) at 0, 20, 40, 60, 80, 100 and 120 min and vice versa for basal to apical transport (B to A). The PTX level was determined using UPLC-MS/MS. The relative % of PTX was presented as mean ± standard error of mean. N = 2–3 independent experiments. Impact of FM04 on PTX metabolism. […] After incubation, the levels of PTX, metabolites 6α-hydroxpaclitaxel (6α-OHP) and p3′-hydroxpaclitaxel (p3-OHP) were determined by HPLC-MS/MS. (B) changes in PTX. (C) changes in 6α-OHP. (D) changes in p3-OHP. […]
(§2) Drug solutions of PTX and FM04 were prepared in methanol. […] PTX and PTX metabolites were immediately analyzed by UPLC-MS/MS on the same day.
(§3) [^13C6]-paclitaxel (CAS: 379688-61-6) was the internal standard (IS) and purchased from Alsachim. Fifteen microliters of 10 μg/mL internal standard (IS) was added to all samples and calibration standards for quantification. […] PTX and both metabolites were semi-quantified base on the peak area ratio of the analyte/internal standard.

BCRP = target: T2, BCRP (Homo sapiens, UniProt Q9UNQ0); experiment: BCRP-modulating activity in HEK293/R2 cells (MTS); format: cell-based; settings: 1 μM, HEK293/R2
T2 construct: expressed in transfected cells; host or cells: HEK293/R2
T2 sequence (Q9UNQ0 1-655): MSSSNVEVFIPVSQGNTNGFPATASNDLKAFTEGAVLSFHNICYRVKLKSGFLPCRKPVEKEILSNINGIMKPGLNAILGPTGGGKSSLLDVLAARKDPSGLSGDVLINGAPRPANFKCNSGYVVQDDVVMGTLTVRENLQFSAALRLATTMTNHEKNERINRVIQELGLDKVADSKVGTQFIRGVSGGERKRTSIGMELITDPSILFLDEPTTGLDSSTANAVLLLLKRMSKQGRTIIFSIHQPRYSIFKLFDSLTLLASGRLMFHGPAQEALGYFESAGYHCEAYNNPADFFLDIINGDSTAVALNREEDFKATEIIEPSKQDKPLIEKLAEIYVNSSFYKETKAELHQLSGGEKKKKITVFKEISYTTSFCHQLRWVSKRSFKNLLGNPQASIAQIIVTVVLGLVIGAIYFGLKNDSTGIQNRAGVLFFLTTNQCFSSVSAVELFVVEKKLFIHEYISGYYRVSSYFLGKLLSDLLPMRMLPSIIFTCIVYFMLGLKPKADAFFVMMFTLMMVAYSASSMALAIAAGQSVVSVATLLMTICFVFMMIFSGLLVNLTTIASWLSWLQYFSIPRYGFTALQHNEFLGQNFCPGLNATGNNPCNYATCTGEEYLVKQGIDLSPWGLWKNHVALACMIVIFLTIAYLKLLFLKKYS
Protocol: The final volume in each well of the 96-well plate was 200 μL. The plate was then incubated for 5 days at 37 °C. The cell viability was determined using an MTS assay as reported previously.

[1] = set-up: method as in PMID 23090875; settings: oral PTX 10 mg/kg, cited from earlier work
CYP2C8 and CYP3A4 = experiment: PTX metabolism in human liver microsomes: PTX level; format: in vitro ADME; settings: HLM; in the presence of NADPH, no inhibitor
Protocol: as §1, §2, §3

| decrease of the level of 6α-OHP (CYP2C8; FM04 10 μM) [%] | decrease of the level of 6α-OHP (CYP2C8; FM04 20 μM) [%] | Compound | reversal of BCRP-mediated topotecan resistance (BCRP) | fold increase of oral plasma AUC of PTX relative to wild type mice ([1]; Cyp3a KO (Cyp3a−/−) mice) [fold] | fold increase of oral plasma AUC of PTX relative to wild type mice ([1]; P-gp KO (Mdr1a/b−/−) mice) [fold] | fold increase of oral plasma AUC of PTX relative to wild type mice ([1]; combined P-gp and Cyp3a KO mice) [fold] | reduction of PTX level (CYP2C8 and CYP3A4) [%] |
| --- | --- | --- | --- | --- | --- | --- | --- |
| 44 | 48 | O=c1cc(-c2ccc(OCCOCCNCc3ccccc3)cc2)oc2ccccc12 [FM04, 2-(4-(2-(2-(benzylamino)ethoxy)ethoxy)phenyl)-4H-chromen-4-one] | did not reverse BCRP-mediated topotecan resistance |  |  |  |  |
|  |  | CC(=O)O[C@H]1C(=O)[C@@]2(C)[C@H]([C@H](OC(=O)c3ccccc3)[C@]3(O)C[C@H](OC(=O)[C@H](O)[C@@H](NC(=O)c4ccccc4)c4ccccc4)C(C)=C1C3(C)C)[C@]1(OC(C)=O)CO[C@@H]1C[C@@H]2O [PTX, paclitaxel] |  | 1.5 | 12.4 | 27.6 | 50 |
